In patent US20120165315A1, “[…] PRODRUG SALTS” (priority 2010, published 2012):

Tests used:
[1] = Hygroscopicity of the free base and its salts; type: physicochemical; settings: solid form
Source text: (§1) The advantageous properties of salts according to the invention can be seen from the table below:
(§2) The salts were all obtained in good yields.

[2] = Thermal profile / melt event of the free base and its salts; type: physicochemical; settings: solid form
Source text: as §1, §2

[3] = Norbury et al. 1983; cited from earlier work
[4] = Balikova et al. 2001; cited from earlier work
[5] = rat model; Lu et al. 2005, Xie et al. 2005; cited from earlier work
[6] = listed as maleic acid addition salt

Compound | Hygroscopic [1] | Good thermal profile with clean melt event [2] | also measured
CCC1(c2cccc(OC(=O)Nc3ccc(C(=O)O)cc3)c2)CCCCN(C)C1.O=C(O)/C=C\C(=O)O (stereo not drawn) [Meptazinol PABA Carbamate Maleic Acid Addition Salt] | no | yes | Hygroscopic [1, 6]: not be hygroscopic; Good thermal profile with clean melt event [2, 6]: good thermal profiles with clean melt events
CCC1(c2cccc(OC(=O)Nc3ccc(C(=O)O)cc3)c2)CCCCN(C)C1.O=C(O)CC(=O)O (stereo not drawn) [Meptazinol PABA Carbamate Malonic Acid Addition Salt] | not be hygroscopic and no | yes | Good thermal profile with clean melt event ([2]; listed as malonic acid addition salt): good thermal profiles with clean melt events
CCC1(c2cccc(OC(=O)Nc3ccc(C(=O)O)cc3)c2)CCCCN(C)C1.CS(=O)(=O)O (stereo not drawn) [Meptazinol PABA Carbamate Methanesulphonic Acid Addition Salt] | not be hygroscopic and no | yes | Good thermal profile with clean melt event ([2]; listed as methanesulphonic acid addition salt): good thermal profiles with clean melt events
CCC1(c2cccc(OC(=O)Nc3ccc(C(=O)O)cc3)c2)CCCCN(C)C1.O=P(O)(O)O (stereo not drawn) [Meptazinol PABA Carbamate Phosphoric Acid Addition Salt] | no | no | Hygroscopic ([1]; listed as phosphoric acid addition salt): not be hygroscopic
CCC1(c2cccc(OC(=O)Nc3ccc(C(=O)O)cc3)c2)CCCCN(C)C1.O=S(=O)(O)O (stereo not drawn) [Meptazinol PABA Carbamate Sulphuric Acid Addition Salt] | not be hygroscopic and no | yes | Good thermal profile with clean melt event ([2]; listed as sulphuric acid addition salt): good thermal profiles with clean melt events
CCC1(c2cccc(O)c2)CCCCN(C)C1 (stereo not drawn) [Meptazinol] |  |  | oral bioavailability [3]: < 10%
COc1ccc2c3c1O[C@H]1[C@@H](O)CC[C@H]4[C@@H](C2)N(C)CC[C@@]341 [dihydrocodeine] |  |  | share of an oral dose converted to dihydromorphine [4]: less than 2%
CCC1(c2cccc(OC(=O)Nc3ccc(C(=O)O)cc3)c2)CCCCN(C)C1 (stereo not drawn) [meptazinol p-amino-benzoylcarbamate, Meptazinol para-amino benzoic acid carbamate] | yes | no | Hygroscopic ([1]; listed as meptazinol p-amino-benzoic acid carbamate): very hygroscopic
CCC1(c2cccc(OC(=O)Nc3ccc(C(=O)O)cc3)c2)CCCCN(C)C1.Cl (stereo not drawn) [meptazinol p-amino-benzoylcarbamate•HCl] | yes | no | 
(Z)-3-[2-(propionyloxy)phenyl]-2-propenoic ester |  |  | bioavailability over meptazinol itself [5]: significant increase
